Data published in patent US7989445B2, “Thienopyrimidone compound” (Takeda Pharmaceutical Company Limited, priority 2005, dated 2011).
Counter-ions that a name gives are not always drawn.

| SMILES | melting point [°C] |
| --- | --- |
| O=C1CN(Cc2ccc(CCn3cnc4cc(-c5ccc(Cl)cc5)sc4c3=O)cc2)CCN1 [Example 35, 6-(4-chlorophenyl)-3-(2-{4-[(3-oxopiperazin-1-yl)methyl]phenyl}ethyl)thieno[3,2-d]pyrimidin-4(3H)-one] | 232 to 234 |
| CC(C)(C)OC(=O)N1CCN(Cc2ccc(CCn3cnc4cc(-c5ccc(Cl)cc5)sc4c3=O)cc2)C(=O)C1 [Example 37, tert-butyl 4-(4-{2-[6-(4-chlorophenyl)-4-oxothieno[3,2-d]pyrimidin-3(4H)-yl]ethyl}benzyl)-3-oxopiperazine-1-carboxylate] | 165 to 170 |
| CNCc1ccc(CCn2cnc3cc(-c4ccc(Cl)cc4)sc3c2=O)cc1 (as salt: hydrochloride) [Example 4, 6-(4-chlorophenyl)-3-(2-{4-[(methylamino)methyl]phenyl}ethyl)thieno[3,2-d]pyrimidin-4(3H)-one dihydrochloride] | > 300 |
| CC(=O)N1CCN(Cc2ccc(CCn3cnc4cc(-c5ccc(Cl)cc5)sc4c3=O)cc2)C(=O)C1 [Example 39, 3-(2-{4-[(4-acetyl-2-oxopiperazin-1-yl)methyl]phenyl}ethyl)-6-(4-chlorophenyl)thieno[3,2-d]pyrimidin-4(3H)-one] | 204 to 207 |
| O=C1CNCCN1Cc1ccc(CCn2cnc3cc(-c4ccc(Cl)cc4)sc3c2=O)cc1 (as salt: hydrochloride) [Example 38, 6-(4-chlorophenyl)-3-(2-{4-[(2-oxopiperazin-1-yl)methyl]phenyl}ethyl)thieno[3,2-d]pyrimidin-4(3H)-one dihydrochloride] | 271 to 278 |
| CC(c1ccc(CCn2cnc3cc(-c4ccc(Cl)cc4)sc3c2=O)cc1)N1CC[C@H](F)C1 (stereo partly drawn) [Example 19, 6-(4-chlorophenyl)-3-[2-[4-[1-[(3S)-3-fluoropyrrolidin-1-yl]ethyl]phenyl]ethyl]thieno[3,2-d]pyrimidin-4(3H)-one] | 160 to 163 |
| O=C1CCCCN1Cc1ccc(CCn2cnc3cc(-c4ccc(F)cc4)sc3c2=O)cc1 [Example 26, 6-(4-fluorophenyl)-3-(2-{4-[(2-oxopiperidin-1-yl)methyl]phenyl}ethyl)thieno[3,2-d]pyrimidin-4(3H)-one] | 216 to 217 |
| CC(=O)NC1CCN(Cc2ccc(CCn3cnc4cc(-c5ccc(Cl)cc5)sc4c3=O)cc2)C1 (centres unmarked) [Example 36, N-[1-(4-{2-[6-(4-chlorophenyl)-4-oxothieno[3,2-d]pyrimidin-3(4H)-yl]ethyl}benzyl)pyrrolidin-3-yl]acetamide] | 196 to 198 |
| O=C1C[C@@H](O)CN1Cc1ccc(CCn2cnc3cc(-c4ccc(Cl)cc4)sc3c2=O)cc1 [Example 33, 6-(4-chlorophenyl)-3-[2-(4-{[(4R)-4-hydroxy-2-oxopyrrolidin-1-yl]methyl}phenyl)ethyl]thieno[3,2-d]pyrimidin-4(3H)-one] | 243 to 246 |
| CCN1CCN(Cc2ccc(CCn3cnc4cc(-c5ccc(Cl)cc5)sc4c3=O)cc2)C(=O)C1=O [Example 34, 1-(4-{2-[6-(4-chlorophenyl)-4-oxothieno[3,2-d]pyrimidin-3(4H) -yl]ethyl}benzyl)-4-ethylpiperazine-2,3-dione] | 285 to 288 |
| CN(CC(=O)OC(C)(C)C)Cc1ccc(CCn2cnc3cc(-c4ccc(Cl)cc4)sc3c2=O)cc1 [Example 29, N-(4-{2-[6-(4-chlorophenyl)-4-oxothieno[3,2-d]pyrimidin-3(4H) -yl]ethyl}benzyl)-N-methylglycine tert-butyl ester] | 130 |
| CC(=O)N(C)N(C(=O)OC(C)(C)C)c1ccc(CCn2cnc3cc(-c4ccc(Cl)cc4)sc3c2=O)cc1 [Example 20] | 193 to 194 |
| O=C1CCCCN1Cc1ccc(CCn2cnc3cc(-c4ccc(Cl)cc4)sc3c2=O)cc1 [Example 25, 6-(4-chlorophenyl)-3-(2-{4-[(2-oxopiperidin-1-yl)methyl]phenyl}ethyl)thieno[3,2-d]pyrimidin-4(3H)-one] | 199 to 201 |
| CNC1Cc2ccc(C(=O)Cn3cnc4cc(-c5ccc(Cl)cc5)sc4c3=O)cc2C1 (centres unmarked) [Example 16, 6-(4-chlorophenyl)-3-{2-[2-(methylamino)-2,3-dihydro-1H-inden-5-yl]-2-oxoethyl}thieno[3,2-d]pyrimidin-4(3H)-one] | 226 to 229 |

Continued, values first:

| melting point [°C] | SMILES |
| --- | --- |
| 146 to 149 | CNC(=O)CN(C)Cc1ccc(CCn2cnc3cc(-c4ccc(Cl)cc4)sc3c2=O)cc1 [Example 31, N^2-(4-{2-[6-(4-chlorophenyl)-4-oxothieno[3,2-d]pyrimidin-3(4H) -yl]ethyl}benzyl)-N,N^2-dimethylglycinamide] |
| 245 to 248 | CN(C(=O)C(F)(F)F)C1Cc2ccc(C(=O)Cn3cnc4cc(-c5ccc(Cl)cc5)sc4c3=O)cc2C1 (centres unmarked) [Example 15, N-(5-{[6-(4-chlorophenyl)-4-oxothieno[3,2-d]pyrimidin-3(4H) -yl]acetyl}-2,3-dihydro-1H-inden-2-yl)-2,2,2-trifluoro-N -methylacetamide] |
| 252 to 253 | CN(CC(=O)O)Cc1ccc(CCn2cnc3cc(-c4ccc(Cl)cc4)sc3c2=O)cc1 (as salt: hydrochloride) [Example 30, N-(4-{2-[6-(4-chlorophenyl)-4-oxothieno[3,2-d]pyrimidin-3(4H) -yl]ethyl}benzyl)-N-methylglycine dihydrochloride] |
| 178 | CN(Cc1ccc(CCn2cnc3cc(-c4ccc(Cl)cc4)sc3c2=O)cc1)C(=O)C1CC1 [Example 7, N-(4-{2-[6-(4-chlorophenyl)-4-oxothieno[3,2-d]pyrimidin-3(4H) -yl]ethyl}benzyl)-N-methylcyclopropanecarboxamide] |
| 166 to 169 | CNCC(=O)N(C)Cc1ccc(CCn2cnc3cc(-c4ccc(Cl)cc4)sc3c2=O)cc1 [Example 28, N-(4-{2-[6-(4-chlorophenyl)-4-oxothieno[3,2-d]pyrimidin-3(4H) -yl]ethyl}benzyl)-N,N^2-dimethylglycinamide] |
| 285 to 287 | O=C(Cn1cnc2cc(-c3ccc(Cl)cc3)sc2c1=O)c1ccc2c(c1)CCN(C(=O)C(F)(F)F)CC2 [Example 10, 6-(4-chlorophenyl)-3-{2-oxo-2-[3-(trifluoroacetyl) -2,3,4,5-tetrahydro-1H-3-benzazepin-7-yl]ethyl}thieno[3,2-d]pyrimidin-4(3H)-one] |
| 235 to 238 | CN(Cc1ccc(C(=O)Cn2cnc3cc(-c4ccc(Cl)cc4)sc3c2=O)cc1)C(=O)C(F)(F)F [Example 12, N-(4-{[6-(4-chlorophenyl)-4-oxothieno[3,2-d]pyrimidin-3(4H) -yl]acetyl}benzyl)-2,2,2-trifluoro-N-methylacetamide] |
| 230 to 232 | CN(Cc1ccc(CCn2cnc3cc(-c4ccc(Cl)cc4)sc3c2=O)cc1)S(C)(=O)=O [Example 24, N-(4-{2-[6-(4-chlorophenyl)-4-oxothieno[3,2-d]pyrimidin-3(4H) -yl]ethyl}benzyl)-N-methylmethanesulfonamide] |
| 250 to 251 | CC(=O)N(C)Cc1ccc(C(=O)Cn2cnc3cc(-c4ccc(Cl)cc4)sc3c2=O)cc1 [Example 14, N-(4-{[6-(4-chlorophenyl)-4-oxothieno[3,2-d]pyrimidin-3(4H) -yl]acetyl}benzyl)-N-methylacetamide] |
| 181 | CN(Cc1ccc(CCn2cnc3cc(-c4ccc(Cl)cc4)sc3c2=O)cc1)C(=O)CC(C)(C)C [Example 5, N-(4-{2-[6-(4-chlorophenyl)-4-oxothieno[3,2-d]pyrimidin-3(4H)-yl]ethyl}benzyl)-N,3,3-trimethylbutanamide] |
| 160 to 165 | CN(C)C(=O)N(C)Cc1ccc(CCn2cnc3cc(-c4ccc(Cl)cc4)sc3c2=O)cc1 [Example 8, N-(4-{2-[6-(4-chlorophenyl)-4-oxothieno[3,2-d]pyrimidin-3(4H) -yl]ethyl}benzyl)-N,N′,N′-trimethylurea] |
| 206 to 209 | CN(Cc1ccc(CCn2cnc3cc(-c4ccc(Cl)cc4)sc3c2=O)cc1)C(=O)OC(C)(C)C [Example 3, tert-butyl N-(4-{2-[6-(4-chlorophenyl)-4-oxothieno[3,2-d]pyrimidin-3(4H)-yl]ethyl}benzyl)-N-methylcarbamate] |
